In US9573899B2, “USP7 inhibitor compounds and methods of use” (Genentech, Inc., priority 2015, dated 2017):

Columns and labels:
[1] = target: T1, USP7, full-length, native C-Terminus (Homo sapiens, UniProt Q93009); assay: Biochemical USP7 assay with Ubiquitin-Rho110 substrate, compounds pre-incubated with USP7 (USP7_Ub-Rho preInc); conditions: compounds pre-mixed with USP7, 1 hour incubation, before substrate; read-out: USP7 Ub-Rho preInc (IC50)
T1 construct: USP7, full-length, native C-Terminus, 0.2 nM
T1 sequence (Q93009 whole entry): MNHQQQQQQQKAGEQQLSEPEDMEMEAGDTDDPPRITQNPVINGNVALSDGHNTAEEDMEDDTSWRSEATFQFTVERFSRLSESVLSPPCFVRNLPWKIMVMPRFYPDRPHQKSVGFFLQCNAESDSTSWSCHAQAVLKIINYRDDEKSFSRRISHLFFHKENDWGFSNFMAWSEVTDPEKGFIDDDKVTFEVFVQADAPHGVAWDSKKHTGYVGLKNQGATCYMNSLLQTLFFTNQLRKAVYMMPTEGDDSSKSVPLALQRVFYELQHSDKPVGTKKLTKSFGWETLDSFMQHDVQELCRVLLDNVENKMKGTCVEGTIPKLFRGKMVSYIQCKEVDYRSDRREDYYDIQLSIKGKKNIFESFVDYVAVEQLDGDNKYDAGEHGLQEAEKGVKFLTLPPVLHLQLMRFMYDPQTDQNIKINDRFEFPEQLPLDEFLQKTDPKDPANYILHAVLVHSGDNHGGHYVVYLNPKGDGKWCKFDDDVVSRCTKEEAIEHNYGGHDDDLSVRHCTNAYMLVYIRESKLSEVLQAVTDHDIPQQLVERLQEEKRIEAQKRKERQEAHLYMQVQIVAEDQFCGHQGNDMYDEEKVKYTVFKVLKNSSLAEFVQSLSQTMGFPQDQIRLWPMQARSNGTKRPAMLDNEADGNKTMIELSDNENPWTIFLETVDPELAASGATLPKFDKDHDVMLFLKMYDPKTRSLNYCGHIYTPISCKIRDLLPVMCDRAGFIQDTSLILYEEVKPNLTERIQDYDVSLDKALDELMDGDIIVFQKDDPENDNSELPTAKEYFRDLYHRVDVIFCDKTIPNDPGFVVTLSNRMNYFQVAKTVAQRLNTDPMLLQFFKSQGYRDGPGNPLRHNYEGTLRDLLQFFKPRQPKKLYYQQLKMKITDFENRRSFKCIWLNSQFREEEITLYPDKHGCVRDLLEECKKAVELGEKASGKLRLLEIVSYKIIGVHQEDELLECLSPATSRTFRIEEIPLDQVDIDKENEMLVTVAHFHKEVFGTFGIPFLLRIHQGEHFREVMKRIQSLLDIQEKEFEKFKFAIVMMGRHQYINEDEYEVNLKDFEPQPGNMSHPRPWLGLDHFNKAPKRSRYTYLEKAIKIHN
In short: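 Full-length USP7 (0.2 nM) cleaving Ubiquitin-Rho110 (1 uM) in pH 7.5 Tris buffer with DTT, 1 h at room temperature, acetic-acid quenched; Rho110 fluorescence at 485/535 nm. Pre-incubation variant: compound and USP7 mixed 1 h before substrate addition. IC50 from % inhibition versus no-enzyme and uninhibited controls.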

[2] = tested on: HCT116 cells (wild type and USP7 null); assay: CellTitre-Glo cell viability, HCT116 wild type and USP7 null (FIG. 4); type: cell-based, Human; conditions: HCT116 wild type versus USP7 null
Procedure: 2,500-5,000 cells were seeded in 1-well of a 96-well plate (Corning; 3904). The following day, the media was changed from normal (10%) to low serum (0.5%) containing vehicle (DMSO) or compounds. 16-24 h later FBS was added to each well to bring serum levels back to normal (10%). Cells were then allowed to grow for 2 days. All treatments were done in triplicate.
(§1) Seventy two hours after compounds were added, CellTitre Glo (CTG) reagent was added following the protocol provided by the manufacturer (Promega). In the experiment to test compound dependency on USP7, 3× more USP7 null cells were plated per well (7,500 vs. 2,500 for wild-type (WT) cells), given the slower proliferation of USP7 null cells. For the multiple myeloma experiment, cells seeded in low serum and treated with compounds immediately. Twenty four hours later, serum was added back to normal levels. CTG assay was done 24 h later i.e. 48 h after compounds were added instead of 72 hrs later for the adherent cells.

[3] = tested on: MCF-7 p53 WT breast cancer cells; assay: Incucyte cell proliferation and caspase activity, MCF-7 (FIG. 10, 17); type: cell-based; conditions: MCF-7 p53 WT compared to MDA-MB157 p53 null cells; compared to 89
Procedure: (§2) 2,500-5,000 cells were seeded in 1-well of a 96-well plate (Corning; 3904). The following day, the media was changed from normal (10%) to low serum (0.5%) containing vehicle (DMSO) or compounds. 16-24 h later FBS was added to each well to bring serum levels back to normal (10%). Cells were then allowed to grow for 2 days. All treatments were done in triplicate. The day after cells were seeded, the media was changed to low serum media containing 2 μM CellEvent Caspase 3/7 reagent (Life Technologies; C10423) and compounds. The plates were placed in an IncuCyte (Essen Bioscience, Inc.) live cell imager and scanning was started 15-20 mins after. IncuCyte™ ZOOM facilitates live-cell monitoring via customized imaging protocols. Images were taken every 2 h for at least 3 days, using a 10× objective. Phase contrast was used to measure cell confluency/density while green fluorescence was used to measure caspase activity. The images were analyzed using IncuCyte software (Basic Analysis parameters) and a ratio of caspase activity to cell density was determined.

[4] = tested on: colon cancer cell lines RKO and RKO-E6, and cervical cancer cell lines Vibo and SiHA; assay: Incucyte cell proliferation in RKO, RKO-E6, Vibo and SiHA cells (FIG. 15); type: cell-based
Procedure: as §2

[5] = tested on: MDM2 in MCF7 breast cancer cells; assay: MDM2 turnover in MCF7 cells with cycloheximide (FIG. 3A); type: cell-based; conditions: 15 μM, in the presence of cycloheximide (CHX)
Procedure: In 24-well plates, 0.15×10^6 MCF-7 cells were treated for a total of 8 h with DMSO or compounds (15 μM). During that 8 h, cycloheximide (CHX) was added for the indicated times prior to harvest.

[6] = tested on: KMS-21BM and KMS-28PE multiple myeloma cells; assay: Cell Titer Glo viability of multiple myeloma cells (FIG. 13A); type: cell-based; conditions: compared to 89
Procedure: as §1

Question: Which results are given for `CCc1c(-c2ccc3[nH]ncc3c2)cnc(N)c1-c1ccc(O)cc1` [Compound 88, 4-[2-amino-4-ethyl-5-(1H-indazol-5-yl)-3-pyridyl]phenol]?
Answer: IC50 [1]: 2.1 µM; cell viability [2]: USP7-dependent decrease in viability; cell viability (Incucyte proliferation and caspase activity) [3]: decreases cell viability; cell viability (Incucyte cell proliferation) [4]: decreases cell viability; destabilizing effect on MDM2 (western blot) [5]: destabilizing effects; cell viability (Cell Titer Glo signal) [6]: decrease in cell viability
